Measurements reported in ChEMBL document CHEMBL4680262, “Development of oxathiino[6,5-b]pyridine 2,2-dioxide derivatives as selective inhibitors of tumor-related carbonic anhydrases IX and XII” (Eur J Med Chem, 2020).

Assays:
Carbonic anhydrase 9 = Carbonic anhydrase 9 (Homo sapiens, UniProt Q16790); test: Inhibition of recombinant human carbonic anhydrase 9 incubated for 6 hrs prior to testing measured for 10 to 100 secs by phenol red-based stopped-flow CO2 hydration assay
Carbonic anhydrase 1 = Carbonic anhydrase 1 (Homo sapiens, UniProt P00915); test: Inhibition of recombinant human carbonic anhydrase 1 incubated for 6 hrs prior to testing measured for 10 to 100 secs by phenol red-based stopped-flow CO2 hydration assay
Chain of Carbonic anhydrase 1 (P00915 whole entry): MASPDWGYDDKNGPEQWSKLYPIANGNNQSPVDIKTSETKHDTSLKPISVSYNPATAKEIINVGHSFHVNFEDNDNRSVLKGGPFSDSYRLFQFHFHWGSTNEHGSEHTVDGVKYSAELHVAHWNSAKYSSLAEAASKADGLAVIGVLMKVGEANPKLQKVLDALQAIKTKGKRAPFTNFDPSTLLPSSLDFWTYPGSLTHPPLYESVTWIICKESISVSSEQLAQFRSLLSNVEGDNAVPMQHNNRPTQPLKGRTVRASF

Carbonic anhydrase 2 = Carbonic anhydrase 2 (Homo sapiens, UniProt P00918); test: Inhibition of recombinant human carbonic anhydrase 2 incubated for 6 hrs prior to testing measured for 10 to 100 secs by phenol red-based stopped-flow CO2 hydration assay
HeLa = test: Cytotoxicity against human HeLa cells assessed as reduction in cell viability incubated for 48 hrs by MTT assay; assay type: functional, cell-based
MCF7 = test: Cytotoxicity against human MCF7 cells assessed as reduction in cell viability incubated for 48 hrs by MTT assay; assay type: functional, cell-based; settings: MCF7, 48 h
A549 = test: Cytotoxicity against human A549 cells assessed as reduction in cell viability incubated for 48 hrs by MTT assay; assay type: functional, cell-based; settings: A549, 48 h

| SMILES | Ki (Carbonic anhydrase 9) | Ki (Carbonic anhydrase 1) | Ki (Carbonic anhydrase 2) | IC50 (HeLa) | IC50 (MCF7) | IC50 (A549) |
| --- | --- | --- | --- | --- | --- | --- |
| O=S1(=O)C=Cc2cc(-c3ccc(Cl)cc3)cnc2O1 | 0.0863 µM | > 100 µM | > 100 µM | – | – | – |
| O=S1(=O)C=Cc2cc(-c3ccc(OC(F)(F)F)cc3)cnc2O1 | 0.2 µM | > 100 µM | > 100 µM | – | – | – |
| O=S1(=O)C=Cc2cc(-c3ccc(C(F)(F)F)cc3)cnc2O1 | 0.0701 µM | – | – | 42 µM | 75 µM | 77 µM |
| COc1ccc(-c2cnc3c(c2)C=CS(=O)(=O)O3)cc1 | 0.0868 µM | > 100 µM | > 100 µM | – | – | – |
| O=S1(=O)C=Cc2cc(-c3ccc(-c4ccccc4)cc3)cnc2O1 | 0.21 µM | > 100 µM | > 100 µM | – | – | – |
| O=S1(=O)C=Cc2cc(-c3cc(Cl)cc(Cl)c3)cnc2O1 | 0.0569 µM | > 100 µM | > 100 µM | 4.8 µM | 20 µM | 14 µM |
| O=S1(=O)C=Cc2cc(-c3cccc4ccccc34)cnc2O1 | 0.221 µM | – | – | – | – | – |
| O=S1(=O)C=Cc2cc(-c3ccccc3)cnc2O1 | 0.134 µM | > 100 µM | > 100 µM | – | – | – |
| COc1cccc(-c2cnc3c(c2)C=CS(=O)(=O)O3)c1 | 0.137 µM | > 100 µM | > 100 µM | – | – | – |
| O=S1(=O)C=Cc2cccnc2O1 | 0.169 µM | 64.1 µM | 14 µM | – | – | – |
| CC(C)(C)c1ccc(-c2cnc3c(c2)C=CS(=O)(=O)O3)cc1 | 0.0314 µM | – | – | 171 µM | > 500 µM | 149 µM |
